The nature of data set [1]: in vitro. The following applies: human, liver microsomes.
Description: Stability in human liver microsomes assessed as parent compound remaining at 3 uM after 10 mins by mass spectrometric method
Data set [2] in a line: in vitro. Conditions: rat, liver microsomes.
Description: Stability in rat liver microsomes assessed as parent compound remaining at 3 uM after 10 mins by mass spectrometric method
Data set [3] is described as follows: in vitro. Conditions: mouse, liver microsomes. In general terms: Liver microsomes are a subcellular fraction often used to study metabolism.
Description: Stability in mouse liver microsomes assessed as parent compound remaining at 3 uM after 10 mins by mass spectrometric method

By share remaining is commonly meant the share of the starting amount still present when the sample was taken. Read a high share remaining as greater stability. `CC(C)c1cc(F)cc(Oc2c(Cl)cc(NC(=O)Cc3cccnc3)cc2Cl)c1`: the amount remaining at 10 min, 3 µM in data set [1] came to 79%; in data set [2], 78%; in data set [3], 81%.

Values taken from ChEMBL document CHEMBL4680341, “Substituted diaryl ether compounds as retinoic acid-related orphan Receptor-γt (RORγt) agonists” (Bioorg Med Chem Lett, 2021).
